Measured values from patent US10544113B2 (priority 2016, dated 2020).
Where two headings read alike, the source gives them in different places.

Target: mu-opioid receptor (MOR) (Homo sapiens (Human), UniProt P35372)
Assay: cell-based
Details: combined with a MOR antagonist; for AUC: AUC of [Ca2+]i fluorescence, CHO-K1/MOR/Gα15 cells

mu-opioid receptor (MOR), sequence (P35372 whole entry): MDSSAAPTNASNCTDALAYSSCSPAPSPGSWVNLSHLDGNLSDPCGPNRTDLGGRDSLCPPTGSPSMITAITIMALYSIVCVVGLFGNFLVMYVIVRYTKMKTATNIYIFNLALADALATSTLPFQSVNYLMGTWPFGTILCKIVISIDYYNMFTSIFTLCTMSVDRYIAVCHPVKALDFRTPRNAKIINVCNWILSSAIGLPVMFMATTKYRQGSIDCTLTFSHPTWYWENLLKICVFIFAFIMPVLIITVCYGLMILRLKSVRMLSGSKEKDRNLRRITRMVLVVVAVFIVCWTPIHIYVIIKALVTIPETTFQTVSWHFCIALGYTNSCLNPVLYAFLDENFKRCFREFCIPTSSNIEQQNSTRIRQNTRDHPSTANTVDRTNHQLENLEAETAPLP

Cc1cc(C(=O)OCCCN(C)C)ccc1N1C(=O)CSC1c1ccc(F)cc1 (centres unmarked) [Example 291]
FLIPR Ca^2+ AUC: 8913 | EC50 (read-out: FLIPR Ca^2+ EC50): 1.9 µM

CCN(CC)CCOC(=O)c1ccc(N2C(=O)CSC2c2ccc(F)cc2)c(C)c1 (centres unmarked) [Example 292]
FLIPR Ca^2+ AUC: 10056 | EC50 (read-out: FLIPR Ca^2+ EC50): 3.1 µM

Cc1cc(C(=O)OCCN2CCCCC2)ccc1N1C(=O)CSC1c1ccc(F)cc1 (centres unmarked) [Example 295]
FLIPR Ca^2+ AUC: 10426 | EC50 (read-out: FLIPR Ca^2+ EC50): 2.8 µM

Cc1cc(C(=O)OCCN2CCOCC2)ccc1N1C(=O)CSC1c1ccc(F)cc1 (centres unmarked) [Example 296]
FLIPR Ca^2+ AUC: 14052 | EC50 (read-out: FLIPR Ca^2+ EC50): 2.3 µM

Cc1cc(C(=O)OCCCN2CCOCC2)ccc1N1C(=O)CSC1c1ccc(F)cc1 (centres unmarked) [Example 297]
FLIPR Ca^2+ AUC: 13753 | EC50 (read-out: FLIPR Ca^2+ EC50): 8.1 µM

Cc1cc(C(=O)OCCCN2CCCCC2)ccc1N1C(=O)CSC1c1ccc(F)cc1 (centres unmarked) [Example 298]
FLIPR Ca^2+ AUC: 9283 | EC50 (read-out: FLIPR Ca^2+ EC50): 1.7 µM

CC(=O)N1CCC(CCOC(=O)c2ccc(N3C(=O)CSC3c3ccc(F)cc3)c(C)c2)CC1 (centres unmarked) [Example 299]
FLIPR Ca^2+ AUC: 10053 | EC50 (read-out: FLIPR Ca^2+ EC50): 5 µM

Cc1cc(C(=O)OC2CCN(C)C2)ccc1N1C(=O)CSC1c1ccc(F)cc1 (centres unmarked) [Example 300]
FLIPR Ca^2+ AUC: 12918 | EC50 (read-out: FLIPR Ca^2+ EC50): 1.6 µM

Cc1cc(C(=O)OC2CCN(C)CC2)ccc1N1C(=O)CSC1c1ccc(F)cc1 (centres unmarked) [Example 301]
FLIPR Ca^2+ AUC: 9593 | EC50 (read-out: FLIPR Ca^2+ EC50): 0.9 µM

Cc1cc(C(=O)OCCOCCN)ccc1N1C(=O)CSC1c1ccc(F)cc1 (centres unmarked) [Example 303]
AUC: more than 5000 | EC50 (EC50, CHO-K1/MOR/Gα15 cells): < 10 µM | FLIPR Ca^2+ AUC: 9530 | EC50 (read-out: FLIPR Ca^2+ EC50): 7 µM

Cc1cc(C(=O)OCCOCCN(C)C)ccc1N1C(=O)CSC1c1ccc(F)cc1 (centres unmarked) [Example 306]
AUC: more than 5000 | EC50 (EC50, CHO-K1/MOR/Gα15 cells): < 10 µM | FLIPR Ca^2+ AUC: 7531 | EC50 (read-out: FLIPR Ca^2+ EC50): 6.2 µM

Cc1cc(C(=O)OCCOCCN2CCCC2)ccc1N1C(=O)CSC1c1ccc(F)cc1 (centres unmarked) [Example 307]
AUC: more than 5000 | EC50 (EC50, CHO-K1/MOR/Gα15 cells): < 10 µM | FLIPR Ca^2+ AUC: 14731 | EC50 (read-out: FLIPR Ca^2+ EC50): 8.7 µM

Cc1cc(C(=O)OCc2oc(=O)oc2C)ccc1N1C(=O)CSC1c1ccc(F)cc1 (centres unmarked) [Example 311]
EC50 (EC50, CHO-K1/MOR/Gα15 cells): < 10 µM

CCOC(=O)OC(C)OC(=O)c1ccc(N2C(=O)CSC2c2ccc(F)cc2)c(C)c1 (centres unmarked) [Example 313, 3-(1,5-Dimethyl-3-oxo-2-phenyl-2,3-dihydro-1H-pyrazol-4-yl)-2-(4-(methylthi)phenyl)thiazolidin-4-one]
EC50 (EC50, CHO-K1/MOR/Gα15 cells): < 10 µM

Cc1cc(C(=O)OCOC(=O)OC(C)C)ccc1N1C(=O)CSC1c1ccc(F)cc1 (centres unmarked) [Example 314]
EC50 (EC50, CHO-K1/MOR/Gα15 cells): < 10 µM

Cc1cc(C(=O)OC(C)CNC(=O)c2cccnc2)ccc1N1C(=O)CSC1c1ccc(F)cc1 (centres unmarked) [Example 326]
EC50 (EC50, CHO-K1/MOR/Gα15 cells): < 10 µM

Cc1cc(C(=O)OC(C)CNC(=O)c2ccc[n+](C)c2)ccc1N1C(=O)CSC1c1ccc(F)cc1 (centres unmarked) [Example 328]
EC50 (read-out: FLIPR Ca^2+ EC50): 11.8 µM

Cc1cc(C(N)=O)ccc1N1C(=O)CSC1c1ccc(F)cc1 (centres unmarked) [Example 329]
AUC: more than 5000 | EC50 (EC50, CHO-K1/MOR/Gα15 cells): < 10 µM | FLIPR Ca^2+ AUC: 13749 | EC50 (read-out: FLIPR Ca^2+ EC50): 1.7 µM

CNC(=O)c1ccc(N2C(=O)CSC2c2ccc(F)cc2)c(C)c1 (centres unmarked) [Example 331]
EC50 (EC50, CHO-K1/MOR/Gα15 cells): < 10 µM

Cc1cc(C(=O)N(C)C)ccc1N1C(=O)CSC1c1ccc(F)cc1 (centres unmarked) [Example 332]
EC50 (EC50, CHO-K1/MOR/Gα15 cells): < 10 µM

CCCNC(=O)c1ccc(N2C(=O)CSC2c2ccc(F)cc2)c(C)c1 (centres unmarked) [Example 334]
EC50 (EC50, CHO-K1/MOR/Gα15 cells): < 10 µM | FLIPR Ca^2+ AUC: 9672 | EC50 (read-out: FLIPR Ca^2+ EC50): 5.7 µM

CCNC(=O)c1ccc(N2C(=O)CSC2c2ccc(F)cc2)c(C)c1 (centres unmarked) [Example 335]
EC50 (EC50, CHO-K1/MOR/Gα15 cells): < 10 µM | FLIPR Ca^2+ AUC: 11180 | EC50 (read-out: FLIPR Ca^2+ EC50): 4.2 µM

Cc1cc(C(=O)NC2CC2)ccc1N1C(=O)CSC1c1ccc(F)cc1 (centres unmarked) [Example 336]
FLIPR Ca^2+ AUC: 11347 | EC50 (read-out: FLIPR Ca^2+ EC50): 11 µM

Cc1cc(C(=O)NC2CCC2)ccc1N1C(=O)CSC1c1ccc(F)cc1 (centres unmarked) [Example 337]
EC50 (EC50, CHO-K1/MOR/Gα15 cells): < 10 µM | FLIPR Ca^2+ AUC: 8936 | EC50 (read-out: FLIPR Ca^2+ EC50): 0.3 µM

Cc1cc(C(=O)NC2CCCC2)ccc1N1C(=O)CSC1c1ccc(F)cc1 (centres unmarked) [Example 338]
EC50 (EC50, CHO-K1/MOR/Gα15 cells): < 10 µM | FLIPR Ca^2+ AUC: 9215 | EC50 (read-out: FLIPR Ca^2+ EC50): 4.4 µM

Cc1cc(C(=O)NC2CCCCC2)ccc1N1C(=O)CSC1c1ccc(F)cc1 (centres unmarked) [Example 339]
FLIPR Ca^2+ AUC: 7164 | EC50 (read-out: FLIPR Ca^2+ EC50): 10 µM

Cc1cc(C(=O)NCCN(C)C)ccc1N1C(=O)CSC1c1ccc(F)cc1 (centres unmarked) [Example 340]
FLIPR Ca^2+ AUC: 9445 | EC50 (read-out: FLIPR Ca^2+ EC50): 10 µM

CCN(CC)CCNC(=O)c1ccc(N2C(=O)CSC2c2ccc(F)cc2)c(C)c1 (centres unmarked) [Example 341]
FLIPR Ca^2+ AUC: 9983 | EC50 (read-out: FLIPR Ca^2+ EC50): 3.3 µM

Cc1cc(C(=O)NCCCN(C)C)ccc1N1C(=O)CSC1c1ccc(F)cc1 (centres unmarked) [Example 342]
FLIPR Ca^2+ AUC: 16741 | EC50 (read-out: FLIPR Ca^2+ EC50): 3.3 µM

Cc1cc(C(=O)NCCCN2CCOCC2)ccc1N1C(=O)CSC1c1ccc(F)cc1 (centres unmarked) [Example 347]
FLIPR Ca^2+ AUC: 12967 | EC50 (read-out: FLIPR Ca^2+ EC50): 8.2 µM

Cc1cc(C(=O)NCCCn2ccnc2)ccc1N1C(=O)CSC1c1ccc(F)cc1 (centres unmarked) [Example 348]
FLIPR Ca^2+ AUC: 13641 | EC50 (read-out: FLIPR Ca^2+ EC50): 8.8 µM

Cc1cc(C(=O)N2CC[C@@H](N(C)C)C2)ccc1N1C(=O)CSC1c1ccc(F)cc1 (some centres unmarked) [Example 349]
FLIPR Ca^2+ AUC: 11923 | EC50 (read-out: FLIPR Ca^2+ EC50): 10 µM

CCOC(=O)N1CCC(NC(=O)c2ccc(N3C(=O)CSC3c3ccc(F)cc3)c(C)c2)CC1 (centres unmarked) [Example 350]
FLIPR Ca^2+ AUC: 12979 | EC50 (read-out: FLIPR Ca^2+ EC50): 4.4 µM

Cc1cc(C(=O)N2CCC(N)C2)ccc1N1C(=O)CSC1c1ccc(F)cc1 (centres unmarked) [Example 351]
FLIPR Ca^2+ AUC: 11205 | EC50 (read-out: FLIPR Ca^2+ EC50): 10 µM

Cc1cc(C(=O)N2CCCC(O)C2)ccc1N1C(=O)CSC1c1ccc(F)cc1 (centres unmarked) [Example 353]
FLIPR Ca^2+ AUC: 11991 | EC50 (read-out: FLIPR Ca^2+ EC50): 7.3 µM

Cc1cc(C(=O)N2CC(O)C2)ccc1N1C(=O)CSC1c1ccc(F)cc1 (centres unmarked) [Example 354]
FLIPR Ca^2+ AUC: 14863 | EC50 (read-out: FLIPR Ca^2+ EC50): 3.6 µM

COC[C@@H]1CCCN1C(=O)c1ccc(N2C(=O)CSC2c2ccc(F)cc2)c(C)c1 (some centres unmarked) [Example 355]
FLIPR Ca^2+ AUC: 12691 | EC50 (read-out: FLIPR Ca^2+ EC50): 10 µM

COCCN(C)C(=O)c1ccc(N2C(=O)CSC2c2ccc(F)cc2)c(C)c1 (centres unmarked) [Example 356]
FLIPR Ca^2+ AUC: 9505 | EC50 (read-out: FLIPR Ca^2+ EC50): 11.8 µM

Cc1cc(C(=O)N2CCC(N)CC2)ccc1N1C(=O)CSC1c1ccc(F)cc1 (centres unmarked) [Example 357]
EC50 (EC50, CHO-K1/MOR/Gα15 cells): < 10 µM | FLIPR Ca^2+ AUC: 12663 | EC50 (read-out: FLIPR Ca^2+ EC50): 10 µM

Cc1cc(C(=O)Nc2ccccc2)ccc1N1C(=O)CSC1c1ccc(F)cc1 (centres unmarked) [Example 361]
AUC: more than 5000 | EC50 (EC50, CHO-K1/MOR/Gα15 cells): < 10 µM | FLIPR Ca^2+ AUC: 6128 | EC50 (read-out: FLIPR Ca^2+ EC50): 8.8 µM

COc1cccc(NC(=O)c2ccc(N3C(=O)CSC3c3ccc(F)cc3)c(C)c2)c1 (centres unmarked) [Example 368]
AUC: more than 5000 | EC50 (EC50, CHO-K1/MOR/Gα15 cells): < 10 µM | FLIPR Ca^2+ AUC: 8915 | EC50 (read-out: FLIPR Ca^2+ EC50): 6.7 µM

COc1ccccc1NC(=O)c1ccc(N2C(=O)CSC2c2ccc(F)cc2)c(C)c1 (centres unmarked) [Example 373]
AUC: more than 5000 | FLIPR Ca^2+ AUC: 12223 | EC50 (read-out: FLIPR Ca^2+ EC50): 13.6 µM

Cc1cc(C(=O)NCc2ccccc2)ccc1N1C(=O)CSC1c1ccc(F)cc1 (centres unmarked) [Example 374]
AUC: more than 5000 | FLIPR Ca^2+ AUC: 6726 | EC50 (read-out: FLIPR Ca^2+ EC50): 5.1 µM

Cc1cc(C(=O)NCc2ccc(Cl)cc2F)ccc1N1C(=O)CSC1c1ccc(F)cc1 (centres unmarked) [Example 375]
FLIPR Ca^2+ AUC: 4172 | EC50 (read-out: FLIPR Ca^2+ EC50): 3.8 µM

Cc1cc(C(=O)NCc2cc(F)ccc2F)ccc1N1C(=O)CSC1c1ccc(F)cc1 (centres unmarked) [Example 376]
FLIPR Ca^2+ AUC: 8823 | EC50 (read-out: FLIPR Ca^2+ EC50): 1 µM

Cc1cc(C(=O)NCc2cccc(C(F)(F)F)c2)ccc1N1C(=O)CSC1c1ccc(F)cc1 (centres unmarked) [Example 377]
FLIPR Ca^2+ AUC: 12637 | EC50 (read-out: FLIPR Ca^2+ EC50): 12.5 µM

Cc1cc(C(=O)NCc2ccc(F)c(F)c2)ccc1N1C(=O)CSC1c1ccc(F)cc1 (centres unmarked) [Example 378]
EC50 (EC50, CHO-K1/MOR/Gα15 cells): < 10 µM | FLIPR Ca^2+ AUC: 15891 | EC50 (read-out: FLIPR Ca^2+ EC50): 6.3 µM

COc1cc(CNC(=O)c2ccc(N3C(=O)CSC3c3ccc(F)cc3)c(C)c2)cc(OC)c1 (centres unmarked) [Example 380]
AUC: more than 5000 | EC50 (EC50, CHO-K1/MOR/Gα15 cells): < 10 µM | FLIPR Ca^2+ AUC: 10013 | EC50 (read-out: FLIPR Ca^2+ EC50): 8.2 µM

Cc1cc(C(=O)NCc2cc(F)cc(F)c2)ccc1N1C(=O)CSC1c1ccc(F)cc1 (centres unmarked) [Example 381]
AUC: more than 5000 | EC50 (EC50, CHO-K1/MOR/Gα15 cells): < 10 µM | FLIPR Ca^2+ AUC: 6035 | EC50 (read-out: FLIPR Ca^2+ EC50): 8.2 µM

Cc1cc(C(=O)NCCc2ccccc2F)ccc1N1C(=O)CSC1c1ccc(F)cc1 (centres unmarked) [Example 383]
FLIPR Ca^2+ AUC: 5504 | EC50 (read-out: FLIPR Ca^2+ EC50): 6.9 µM

Cc1cc(C(=O)NCCc2cccc(F)c2)ccc1N1C(=O)CSC1c1ccc(F)cc1 (centres unmarked) [Example 385]
FLIPR Ca^2+ AUC: 7501 | EC50 (read-out: FLIPR Ca^2+ EC50): 3.9 µM
